Assay results as given in patent US20260209260A1, “VECTORIZED NHC IRIDIUM(III) COMPLEXES AND USE THEREOF IN PHOTODYNAMIC THERAPY AND/OR DIAGNOSTIC” (CENTRE NATIONAL DE LA RECHERCHE SCIENTIFIQUE, priority 2022, published 2026).
“And” between values parts separate entries of the source, which are not always exact repeats. Equal entries are not always repeated. Where two headings read alike, the source gives them in different places. Marks after values point to notes of the source that are not given here.

How the values were obtained:
[1] = Emission lifetime measurement; format: physicochemical
Summary of the method: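 Emission lifetimes measured by time-correlated single-photon counting (0.5 ns time resolution), excitation from a D2 lamp and a 405 nm pulsed diode laser. Estimated error 5% on lifetime.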

A549 lung cancer cells = assay: Cell viability assay (MTT), dark and blue light; format: cell-based, Human; details: for Photosensitizing index (PI): A549, dark vs blue light
Experimental: (§1) Cells were grown in humidified incubators at 37° C. in 5% CO2. Murine MC3T3 osteoblast and NIH-3T3 fibroblast cells-used as non-tumor cell models-were cultured in a-MEM medium and DMEM medium supplemented with 10% fetal bovine serum (FBS) and 1% Penicillin/Streptomycin (P/S) antibiotics, respectively. Human T24 bladder, MGHU3 bladder, Scaber bladder, A549 lung, MCF7 breast, MiaPaCa2 pancreas cancer cells were cultured in DMEM medium supplemented with 10% FBS and 1% P/S antibiotics. […] Human Hela cervix and HepG2 liver cancer cells were cultured EMEM medium supplemented with 10% FBS and 1% P/S antibiotics.
(§2) MTT reagent (3-(4,5-dimethylthiazol-2-yl)-2,5-diphenyltetrazolium bromide) was used to determine cell death as originally described by Mosmann. Briefly, cells were seeded from 5,000 to 10,000 cells/well in 24-well plates (1 mL) depending on the cell type and allowed to attach overnight. The complexes were prepared in DMSO. The concentration of the complexes was calculated based on the elemental composition of the complexes determined by the elemental analyses. All cell viability experiments were carried out with a fixed concentration of 0.1% (v/v) DMSO. After 72 h of treatment, cells were incubated at 37° C. and 5% CO2 with 25 μL of MTT solution (5 mg/ml; Sigma-Aldrich) in 24-well plates for 3 to 4 h. After solubilization with 500 μL of DMSO, formazan was quantified spectrophotometrically with a microplate reader at 570 nm absorbance (ClarioSTAR, BMG LabTech). […] All the results were calculated from data obtained in at least three independent experiments performed in triplicate.
(§3) Two sets of experiments were conducted in parallel for each complex to be studied:
(§4) 1. The cells were incubated with the different complexes (in the dark) for 72 h.
(§5) 2. The cells were incubated for 8 h with the different complexes (in the dark), then irradiated for 10 min, followed by an incubation in the dark up to 72 h.

T24 bladder cancer cells = assay: Cell viability assay (MTT), dark and blue light; format: cell-based, Human; details: for Photosensitizing index (PI): T24, dark vs blue light
Experimental: as §1, §2, §3, §4, §5

[2] = Luminescence emission spectra and quantum yield; format: physicochemical; details: for ΦP emission phosphorescence quantum yield: room temperature, reference POPOP in hexane or rhodamine B in ethanol; for λem: CH2Cl2, room temperature, λexc 365 nm or 470 nm
Summary of the method: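 Spectrofluorometric fluorescence/phosphorescence emission spectra of the iridium(III) complexes recorded in CH2Cl2 at room temperature. Quantum yields by the Demas–Crosby relative method on solutions at RT, from integrated emission band areas versus a reference standard of known yield, corrected for solvent refractive index.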

[3] = Lipophilicity: octanol-water partition coefficient, shake-flask method
Summary of the method: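 Octanol and water mutually pre-saturated for 24 h; compound ([…] stock in aqueous phase) partitioned against equal volume n-octanol, mixed 15 min, phases separated by centrifugation.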

[4] = system: NIH-3T3 fibroblast cells (non-tumor); assay: Cell viability assay (MTT), dark and blue light; format: cell-based, Murine; details: for Photosensitizing index (PI): NIH-3T3, dark vs blue light
Summary of the method: (§6)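 Cells were either kept dark for the full 72 h with complex or given 10 min irradiation after 8 h dark pre-incubation, then held dark to 72 h. DMSO fixed at 0.1% (v/v); MTT formazan measured at 570 nm; ≥3 independent triplicate experiments.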

[5] = system: MC3T3 osteoblast cells (non-tumor); assay: Cell viability assay (MTT), dark and blue light; format: cell-based, Murine; details: for Photosensitizing index (PI): MC3T3, dark vs blue light
Summary of the method: as §6

[6] = UV/Vis absorption spectra; format: physicochemical; details: room temperature, air-saturated CH2Cl2 or CH2Cl2/MeOH (1:1), 50 μM; ε in brackets, sh = shoulder
Experimental: UV/Vis absorption spectra were recorded at RT on solutions contained in quartz cuvettes (optical pathlength 1 cm, Hellma®) with a PerkinElmer® UV/VIS/NIR spectrophotometer Lambda 950 and a PerkinElmer® detector UV/VIS/NIR Accessory 2D Detector Module.

[7] = A549, blue light, read-out: GI50
[8] = T24, blue light, read-out: GI50
[9] = n-octanol/water, shake-flask, mean of at least three determinations
[10] = NIH-3T3, blue light, read-out: GI50
[11] = MC3T3, blue light, read-out: GI50
[12] = 8 h in the dark, blue light 458 nm 10 min, then dark up to 72 h, read-out: GI50 NIH-3T3 Blue
[13] = in the dark, 72 h, read-out: GI50 NIH-3T3 Dark
[14] = 8 h in the dark, blue light 458 nm 10 min, then dark up to 72 h, read-out: GI50 MC3T3 Blue
[15] = in the dark, 72 h, read-out: GI50 MC3T3 Dark

SMILES	τ1 emission lifetime [1] [ns]	GI50 (A549 lung cancer cells; [7]) [µM]	SI (vs MC3T3) (A549 lung cancer cells; A549, dark)	Photosensitizing index (PI) (A549 lung cancer cells)	SI (vs NIH-3T3) (T24 bladder cancer cells; T24, blue light)	GI50 (T24 bladder cancer cells; [8]) [µM]	SI (vs NIH-3T3) (T24 bladder cancer cells; T24, dark)	ΦP emission phosphorescence quantum yield [2] [%]	GI50 [4, 10] [µM]	Photosensitizing index (PI) [4]	GI50 [5, 11] [µM]	Photosensitizing index (PI) [5]	GI50 ([5]; MC3T3, dark, read-out: GI50) [µM]	λmax (nm) ε (M^−1 · cm^−1) [6]	Log P [3]	GI50 [4, 12] [µM]	GI50 ([4]; NIH-3T3, dark, read-out: GI50) [µM]	GI50 [4, 13] [µM]	GI50 [5, 14] [µM]	GI50 [5, 15] [µM]	other results
F[P-](F)(F)(F)(F)F.O=C(NCCCn1cc[n+]2[c]1[Ir-3]13([c]4cccc5ccc6ccc[n+]1c6c45)([c]1cccc4ccc5ccc[n+]3c5c14)[n+]1ccccc1-2)[c-]1cccc1.[Fe+2].c1cc[cH-]c1 [IV-i]	205	1	2.2	4.6	50.4	0.35	23.2	0.02	17.8	2.3	10	1.0	10	318 (25600), 413 (7410) nm (M^−1 · cm^−1)							SI (vs NIH-3T3) (A549 lung cancer cells; A549, blue light): 17.8; GI50 (A549 lung cancer cells; A549, dark, read-out: GI50): 4.6 µM; SI (vs MC3T3) (T24 bladder cancer cells; T24, blue light): 27.2; Photosensitizing index (PI) (T24 bladder cancer cells): 5.1; Log P [3, 9]: 0.74 ± 0.02
F[P-](F)(F)(F)(F)F.O=C(NCCCn1cc[n+]2[c]1[Ir-3]13([c]4ccccc4-c4c5ccccc5cc[n+]41)([c]1ccccc1-c1c4ccccc4cc[n+]13)[n+]1ccccc1-2)[c-]1cccc1.[Fe+2].c1cc[cH-]c1 [IV-h]	178	0.27	3.4	18.9	44.0	0.1	10.2	0.07	4.4	3.0		3.8	17.1	334 (sh) (19440), 351 (sh) (18355), 380 (12745), 435 (7870) nm (M^−1 · cm^−1)	0.81 ± 0.07						SI (vs MC3T3) (T24 bladder cancer cells; T24, blue light): 45.0; Photosensitizing index (PI) (T24 bladder cancer cells): 13.0; GI50 (T24 bladder cancer cells; T24, dark, read-out: GI50): 1.3 µM
F[P-](F)(F)(F)(F)F.O=C(O)CC[C@H](NC(=O)N[C@@H](CCCCNC(=O)CCn1cc[n+]2[c]1[Ir-3]13([c]4ccccc4-c4sc5ccccc5[n+]41)([c]1ccccc1-c1sc4ccccc4[n+]13)[n+]1ccccc1-2)C(=O)O)C(=O)O [III-k]	649							6.1	30	>3.3	33.8	2.8	95.1	321 (39070), 370 (sh) (12560), 406 (10170) nm (M^−1 · cm^−1)	−0.14 ± 0.01	30	> 100	> 100	33.8	95.1	
F[P-](F)(F)(F)(F)F.O=C(O)CC[C@H](NC(=O)N[C@@H](CCCCNC(=O)CCn1cc[n+]2[c]1[Ir-3]13([c]4c(sc5ccccc45)-c4cccc[n+]41)([c]1c(sc4ccccc14)-c1cccc[n+]13)[n+]1ccccc1-2)C(=O)O)C(=O)O [III-j]	197							3.0	10.8	>9.3	12.5	>20	> 250	324 (26900), 343 (sh)^b (24560), 428 (10800) nm (M^−1 · cm^−1)	−0.38 ± 0.03	10.8	> 100	> 100	12.5		
F[P-](F)(F)(F)(F)F.O=C(O)CC[C@H](NC(=O)N[C@@H](CCCCNC(=O)CCn1cc[n+]2[c]1[Ir-3]13([c]4cccc5ccc6ccc[n+]1c6c45)([c]1cccc4ccc5ccc[n+]3c5c14)[n+]1ccccc1-2)C(=O)O)C(=O)O [III-i]	227								55.8	>1.8	40.6	6.2	250	317 (19830), 412 (5510) nm (M^−1 · cm^−1)	0.60 ± 0.01		> 100	> 100		250	λem [2]: 548 nm
F[P-](F)(F)(F)(F)F.O=C(NCCCn1cc[n+]2[c]1[Ir-3]13([c]4c(sc5ccccc45)-c4cccc[n+]41)([c]1c(sc4ccccc14)-c1cccc[n+]13)[n+]1ccccc1-2)[c-]1cccc1.[Fe+2].c1cc[cH-]c1 [IV-j]	196	0.37	2.5	17.6	108.5	0.13	22.7	0.01	14	4.5	3.9	4.2		322 (15400), 342 (sh) (14040), 434 (6150) nm (M^−1 · cm^−1)	1.07 ± 0.07		62.8				SI (vs NIH-3T3) (A549 lung cancer cells; A549, dark): 9.7; GI50 (A549 lung cancer cells; A549, dark, read-out: GI50): 6.5 µM; Photosensitizing index (PI) (T24 bladder cancer cells): 21.5; GI50 (T24 bladder cancer cells; T24, dark, read-out: GI50): 2.8 µM
F[P-](F)(F)(F)(F)F.O=C(CCCC[C@@H]1SC[C@@H]2NC(=O)N[C@@H]21)NCCCn1cc[n+]2[c]1[Ir-3]13([c]4ccccc4-c4c5ccccc5cc[n+]41)([c]1ccccc1-c1c4ccccc4cc[n+]13)[n+]1ccccc1-2 [I-h]	202							3.0						337 (sh) (12520), 352 (sh) (11890), 380 (sh) (8100), 436 (4855) nm (M^−1 · cm^−1)		10.4		101	5	42.2	GI50 (A549 lung cancer cells; 8 h in the dark, blue light 458 nm 10 min, then dark up to 72 h, read-out: GI50 A549 Blue): 0.8 µM and 0.6 µM; SI (vs MC3T3) A549 Dark (A549 lung cancer cells; dark): 3.2; Photosensitizing index (PI) A549 (A549 lung cancer cells; dark vs blue light 458 nm): 21.8; GI50 (A549 lung cancer cells; in the dark, 72 h, read-out: GI50 A549 Dark): 13.1 µM; GI50 (T24 bladder cancer cells; 8 h in the dark, blue light 458 nm 10 min, then dark up to 72 h, read-out: GI50 T24 Blue): 0.58 µM; Photosensitizing index (PI) T24 (T24 bladder cancer cells; dark vs blue light 458 nm): 24.0; GI50 (T24 bladder cancer cells; in the dark, 72 h, read-out: GI50 T24 Dark): 13.9 µM; Log P [3, 9]: 0.87 ± 0.02; Photosensitizing index (PI) NIH-3T3 ([4]; dark vs blue light 458 nm): 9.7; Photosensitizing index (PI) MC3T3 ([5]; dark vs blue light 458 nm): 8.4
F[P-](F)(F)(F)(F)F.O=C(O)CC[C@H](NC(=O)N[C@@H](CCCCNC(=O)CCn1cc[n+]2[c]1[Ir-3]13([c]4ccccc4-c4c5ccccc5cc[n+]41)([c]1ccccc1-c1c4ccccc4cc[n+]13)[n+]1ccccc1-2)C(=O)O)C(=O)O [III-h]	215							3.0	19	>5.3	8.3	6.3	52.4	336 (sh) (23695), 352 (sh) (22270), 378 (sh) (15520), 435 (9310) nm (M^−1 · cm^−1)		19	> 100	> 100	8.3	52.4	λem [2]: 628 nm; Log P [3, 9]: 0.88 ± 0.02
